{"source": "patent US10201532B2", "about": "“Compounds and their use” (ALLECRA THERAPEUTICS GMBH, priority 2010, dated 2019)", "key": {"[1]": {"target": "T1, crude KPC-2 enzyme extract (Klebsiella pneumoniae, UniProt Q9F663)", "T1 construct": "enzyme extracts from KPC-2 producing and KPC-3 expressing bacterial gram negative strains were used; endogenous in cells; host or cells: KPC-2 producing gram-negative strain", "T1 sequence (Q9F663 25-293 limits assumed)": "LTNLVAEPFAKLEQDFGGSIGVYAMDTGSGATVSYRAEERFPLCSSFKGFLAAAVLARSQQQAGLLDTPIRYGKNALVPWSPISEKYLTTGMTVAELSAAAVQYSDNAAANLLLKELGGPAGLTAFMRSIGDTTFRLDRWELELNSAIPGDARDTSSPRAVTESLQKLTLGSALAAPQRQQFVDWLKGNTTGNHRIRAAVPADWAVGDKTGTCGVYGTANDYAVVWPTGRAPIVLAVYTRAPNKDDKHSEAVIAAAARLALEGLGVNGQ", "test": "β-Lactamase inhibitory assay with CENTA substrate", "format": "biochemical", "source_text": "(§1) The Compound-1 was subjected to β-lactamase inhibitory assay to determine IC50 and to compare that with the comparator BLI agents as described elsewhere (Bebrone et. al., Antimicrob. Agents. Chemother, 2001, 45(6): 1868-1871; Jamieson et. al, Antimicrob. Agents. Chemother, 2003, 47(5): 1652-1657). Briefly, enzyme extracts from KPC-2 producing and KPC-3 expressing bacterial gram negative strains were used to study the β-lactamase inhibitory activity and determination of IC50 using CENTA as the substrate for β-lactamase."}, "[2]": {"target": "crude KPC-3 enzyme extract (UniProt Q9F663, H272Y, species not given)", "test": "β-Lactamase inhibitory assay with CENTA substrate", "format": "biochemical", "conditions": "also headed KPC2", "source_text": "as §1"}, "[3]": {"test_system": "KPC-2 producing K. pneumoniae (ATCC BAA-1705)", "test": "Synergistic broth micro-dilution MIC (checkerboard)", "format": "cell-based, Klebsiella pneumoniae", "conditions": "for MIC of Cefepime in combination with BLI / MIC of Cefotaxime in combination with BLI / MIC of Ceftazidime in combination with BLI / MIC of Ceftobiprole in combination with BLI / MIC of Ertapenem in combination with BLI / MIC of Faropenem in combination with BLI / MIC of Imipenem in combination with BLI / MIC of Meropenem in combination with BLI / MIC of Aztreonam in combination with BLI: ATCC BAA-1705"}, "[4]": {"test_system": "KPC-3 expressing E. coli (J53 R6206)", "test": "Synergistic broth micro-dilution MIC (checkerboard)", "format": "cell-based, Escherichia coli"}}, "data": [{"molecule": "O=C(O)[C@H]1/C(=C/CO)O[C@@H]2CC(=O)N21", "note": "[Clavulanic acid]", "values": [{"measurement": "IC50", "setting": "[1]", "value": 330, "unit": "µM"}, {"measurement": "IC50", "setting": "[2]", "value": 92, "unit": "µM"}, {"measurement": "MIC of Cefepime in combination with BLI", "setting": "[3]; BLI at 2 μg/mL", "value": 64, "unit": "µg/mL"}, {"measurement": "MIC of Cefotaxime in combination with BLI", "setting": "[3]; BLI at 2 μg/mL", "value": "32 to 64", "unit": "µg/mL"}, {"measurement": "MIC of Ceftazidime in combination with BLI", "setting": "[3]; BLI at 2 μg/mL", "value": ">64", "unit": "µg/mL"}, {"measurement": "MIC of Ceftobiprole in combination with BLI", "setting": "[3]; BLI at 2 μg/mL", "value": ">64", "unit": "µg/mL"}, {"measurement": "MIC of Ertapenem in combination with BLI", "setting": "[3]; BLI at 2 μg/mL", "value": 32, "unit": "µg/mL"}, {"measurement": "MIC of Faropenem in combination with BLI", "setting": "[3]; BLI at 2 μg/mL", "value": ">64", "unit": "µg/mL"}, {"measurement": "MIC of Imipenem in combination with BLI", "setting": "[3]; BLI at 2 μg/mL", "value": "8 to 16", "unit": "µg/mL"}, {"measurement": "MIC of Meropenem in combination with BLI", "setting": "[3]; BLI at 2 μg/mL", "value": 16, "unit": "µg/mL"}, {"measurement": "MIC of Aztreonam in combination with BLI", "setting": "[3]; BLI at 4 μg/mL", "value": ">64", "unit": "µg/mL"}, {"measurement": "MIC of Cefepime in combination with BLI", "setting": "[3]; BLI at 4 μg/mL", "value": 64, "unit": "µg/mL"}, {"measurement": "MIC of Cefotaxime in combination with BLI", "setting": "[3]; BLI at 4 μg/mL", "value": "32 to 64", "unit": "µg/mL"}, {"measurement": "MIC of Ceftazidime in combination with BLI", "setting": "[3]; BLI at 4 μg/mL", "value": ">64", "unit": "µg/mL"}, {"measurement": "MIC of Ceftobiprole in combination with BLI", "setting": "[3]; BLI at 4 μg/mL", "value": ">64", "unit": "µg/mL"}, {"measurement": "MIC of Ertapenem in combination with BLI", "setting": "[3]; BLI at 4 μg/mL", "value": 64, "unit": "µg/mL"}, {"measurement": "MIC of Faropenem in combination with BLI", "setting": "[3]; BLI at 4 μg/mL", "value": ">64", "unit": "µg/mL"}, {"measurement": "MIC of Imipenem in combination with BLI", "setting": "[3]; BLI at 4 μg/mL", "value": "8 to 16", "unit": "µg/mL"}, {"measurement": "MIC of Meropenem in combination with BLI", "setting": "[3]; BLI at 4 μg/mL", "value": "4 to 8", "unit": "µg/mL"}, {"measurement": "MIC of Cefepime in combination with BLI", "setting": "[3]; BLI at 8 μg/mL", "value": 32, "unit": "µg/mL"}, {"measurement": "MIC of Cefotaxime in combination with BLI", "setting": "[3]; BLI at 8 μg/mL", "value": "16 to 32", "unit": "µg/mL"}, {"measurement": "MIC of Ceftazidime in combination with BLI", "setting": "[3]; BLI at 8 μg/mL", "value": ">64", "unit": "µg/mL"}, {"measurement": "MIC of Ceftobiprole in combination with BLI", "setting": "[3]; BLI at 8 μg/mL", "value": ">64", "unit": "µg/mL"}, {"measurement": "MIC of Imipenem in combination with BLI", "setting": "[3]; BLI at 8 μg/mL", "value": "4 to 8", "unit": "µg/mL"}, {"measurement": "MIC of Meropenem in combination with BLI", "setting": "[3]; BLI at 8 μg/mL", "value": 4, "unit": "µg/mL"}, {"measurement": "MIC of Aztreonam in combination with BLI", "setting": "[3]; BLI at 16 μg/mL", "value": ">64", "unit": "µg/mL"}, {"measurement": "MIC of Cefepime in combination with BLI", "setting": "[3]; BLI at 16 μg/mL", "value": 32, "unit": "µg/mL"}, {"measurement": "MIC of Cefotaxime in combination with BLI", "setting": "[3]; BLI at 16 μg/mL", "value": 16, "unit": "µg/mL"}, {"measurement": "MIC of Ceftazidime in combination with BLI", "setting": "[3]; BLI at 16 μg/mL", "value": 64, "unit": "µg/mL"}, {"measurement": "MIC of Ceftobiprole in combination with BLI", "setting": "[3]; BLI at 16 μg/mL", "value": ">64", "unit": "µg/mL"}, {"measurement": "MIC of Ertapenem in combination with BLI", "setting": "[3]; BLI at 16 μg/mL", "value": 32, "unit": "µg/mL"}, {"measurement": "MIC of Faropenem in combination with BLI", "setting": "[3]; BLI at 16 μg/mL", "value": ">64", "unit": "µg/mL"}, {"measurement": "MIC of Imipenem in combination with BLI", "setting": "[3]; BLI at 16 μg/mL", "value": 2, "unit": "µg/mL"}, {"measurement": "MIC of Meropenem in combination with BLI", "setting": "[3]; BLI at 16 μg/mL", "value": 4, "unit": "µg/mL"}, {"measurement": "MIC of Aztreonam in combination with BLI", "setting": "[3]; BLI at 64 μg/mL", "value": 64, "unit": "µg/mL"}, {"measurement": "MIC of Cefepime in combination with BLI", "setting": "[3]; BLI at 64 μg/mL", "value": 8, "unit": "µg/mL"}, {"measurement": "MIC of Cefotaxime in combination with BLI", "setting": "[3]; BLI at 64 μg/mL", "value": 8, "unit": "µg/mL"}, {"measurement": "MIC of Ceftazidime in combination with BLI", "setting": "[3]; BLI at 64 μg/mL", "value": 16, "unit": "µg/mL"}, {"measurement": "MIC of Ceftobiprole in combination with BLI", "setting": "[3]; BLI at 64 μg/mL", "value": 64, "unit": "µg/mL"}, {"measurement": "MIC of Ertapenem in combination with BLI", "setting": "[3]; BLI at 64 μg/mL", "value": 8, "unit": "µg/mL"}, {"measurement": "MIC of Faropenem in combination with BLI", "setting": "[3]; BLI at 64 μg/mL", "value": ">64", "unit": "µg/mL"}, {"measurement": "MIC of Imipenem in combination with BLI", "setting": "[3]; BLI at 64 μg/mL", "value": "<0.5", "unit": "µg/mL"}, {"measurement": "MIC of Meropenem in combination with BLI", "setting": "[3]; BLI at 64 μg/mL", "value": 2, "unit": "µg/mL"}, {"measurement": "MIC", "setting": "[3]; Klebsiella pneumoniae, ATCCBAA1705, read-out: MIC of BLI alone", "value": "> 64", "unit": "µg/mL"}, {"measurement": "MIC of Cefepime in combination with BLI", "setting": "[4]; BLI at 2 μg/mL", "value": 8, "unit": "µg/mL"}, {"measurement": "MIC of Cefotaxime in combination with BLI", "setting": "[4]; BLI at 2 μg/mL", "value": 4, "unit": "µg/mL"}, {"measurement": "MIC of Ceftazidime in combination with BLI", "setting": "[4]; BLI at 2 μg/mL", "value": 32, "unit": "µg/mL"}, {"measurement": "MIC of Ceftobiprole in combination with BLI", "setting": "[4]; BLI at 2 μg/mL", "value": 8, "unit": "µg/mL"}, {"measurement": "MIC of Imipenem in combination with BLI", "setting": "[4]; BLI at 2 μg/mL", "value": 1, "unit": "µg/mL"}, {"measurement": "MIC of Meropenem in combination with BLI", "setting": "[4]; BLI at 2 μg/mL", "value": 1, "unit": "µg/mL"}, {"measurement": "MIC of Cefepime in combination with BLI", "setting": "[4]; BLI at 4 μg/mL", "value": 8, "unit": "µg/mL"}, {"measurement": "MIC of Cefotaxime in combination with BLI", "setting": "[4]; BLI at 4 μg/mL", "value": 1, "unit": "µg/mL"}, {"measurement": "MIC of Ceftazidime in combination with BLI", "setting": "[4]; BLI at 4 μg/mL", "value": 32, "unit": "µg/mL"}, {"measurement": "MIC of Ceftobiprole in combination with BLI", "setting": "[4]; BLI at 4 μg/mL", "value": 8, "unit": "µg/mL"}, {"measurement": "MIC of Imipenem in combination with BLI", "setting": "[4]; BLI at 4 μg/mL", "value": 1, "unit": "µg/mL"}, {"measurement": "MIC of Meropenem in combination with BLI", "setting": "[4]; BLI at 4 μg/mL", "value": 1, "unit": "µg/mL"}, {"measurement": "MIC of Cefepime in combination with BLI", "setting": "[4]; BLI at 8 μg/mL", "value": 1, "unit": "µg/mL"}, {"measurement": "MIC of Cefotaxime in combination with BLI", "setting": "[4]; BLI at 8 μg/mL", "value": "<0.25", "unit": "µg/mL"}, {"measurement": "MIC of Ceftazidime in combination with BLI", "setting": "[4]; BLI at 8 μg/mL", "value": 8, "unit": "µg/mL"}, {"measurement": "MIC of Ceftobiprole in combination with BLI", "setting": "[4]; BLI at 8 μg/mL", "value": 2, "unit": "µg/mL"}, {"measurement": "MIC of Imipenem in combination with BLI", "setting": "[4]; BLI at 8 μg/mL", "value": 0.5, "unit": "µg/mL"}, {"measurement": "MIC of Meropenem in combination with BLI", "setting": "[4]; BLI at 8 μg/mL", "value": 0.5, "unit": "µg/mL"}, {"measurement": "MIC", "setting": "[4]; Escherichia coli, read-out: MIC of BLI alone, BLI alone", "value": "> 8", "unit": "µg/mL"}]}]}
